Source: the NIST ThermoML archive (doi:10.1021/je060271a)

Conditions: 283.15 K, Liquid, Vibrating tube method

CCCC(=O)OCC(COC(=O)CCC)(COC(=O)CCC)COC(=O)CCC [pentaerythritol tetrabutyrate]
Conditions	mass density [kg/m3]
26946 kPa	1074.1
26974 kPa	1074.2
26998 kPa	1074.3
27022 kPa	1074.2
27050 kPa	1074.3
27074 kPa	1074.2
27098 kPa	1074.2
27122 kPa	1074.3
27151 kPa	1074.2
27174 kPa	1074.3
27198 kPa	1074.2
27228 kPa	1074.3
27248 kPa	1074.3
27267 kPa	1074.4
27296 kPa	1074.4
27330 kPa	1074.3
27354 kPa	1074.3
27384 kPa	1074.5
27408 kPa	1074.4
27433 kPa	1074.5
27463 kPa	1074.4
27488 kPa	1074.4
27512 kPa	1074.4
27542 kPa	1074.4
27566 kPa	1074.6
27592 kPa	1074.5
27622 kPa	1074.5
27646 kPa	1074.5
27672 kPa	1074.6
27701 kPa	1074.7
27726 kPa	1074.6
27752 kPa	1074.6
27782 kPa	1074.5
27808 kPa	1074.6
27833 kPa	1074.6
27863 kPa	1074.6
27889 kPa	1074.6
27915 kPa	1074.7
27941 kPa	1074.7
27972 kPa	1074.8
27998 kPa	1074.6
28024 kPa	1074.7
28049 kPa	1074.8
28080 kPa	1074.8
28101 kPa	1074.7
28127 kPa	1074.7
28164 kPa	1074.8
28190 kPa	1074.8
28217 kPa	1074.7
28249 kPa	1074.7
28276 kPa	1074.8
28303 kPa	1074.9
28329 kPa	1074.9
28356 kPa	1075
28388 kPa	1074.9
28415 kPa	1074.9
28447 kPa	1075
28474 kPa	1075.1
28500 kPa	1075
28527 kPa	1075
28559 kPa	1075.1
28586 kPa	1075
28618 kPa	1075.1
28646 kPa	1075.1
28674 kPa	1075.2
28706 kPa	1075.1
28733 kPa	1075
28760 kPa	1075.2
28787 kPa	1075.2
28820 kPa	1075.2
28847 kPa	1075.2
28881 kPa	1075.2
28908 kPa	1075.1
28936 kPa	1075.1
28969 kPa	1075.2
28985 kPa	1075.3
28997 kPa	1075.2
29011 kPa	1075.2
29026 kPa	1075.1
29043 kPa	1075.2
29054 kPa	1075.3
29088 kPa	1075.3
29116 kPa	1075.3
29146 kPa	1075.2
29150 kPa	1075.4
29179 kPa	1075.3
29207 kPa	1075.3
29240 kPa	1075.3
29253 kPa	1075.5
29268 kPa	1075.4
29296 kPa	1075.4
29322 kPa	1075.4
29330 kPa	1075.5
29357 kPa	1075.4
29385 kPa	1075.6
29417 kPa	1075.4
29442 kPa	1075.4
29443 kPa	1075.6
29464 kPa	1075.4
29471 kPa	1075.6
29482 kPa	1075.7
29505 kPa	1075.5
29534 kPa	1075.5
29557 kPa	1075.5
29562 kPa	1075.6
29590 kPa	1075.5
29625 kPa	1075.6
29628 kPa	1075.6
29649 kPa	1075.5
29655 kPa	1075.6
29683 kPa	1075.6
29711 kPa	1075.5
29718 kPa	1075.7
29748 kPa	1075.7
29778 kPa	1075.5
29786 kPa	1075.7
29808 kPa	1075.6
29843 kPa	1075.7
29859 kPa	1075.7
29872 kPa	1075.7
29901 kPa	1075.7
29931 kPa	1075.8
29943 kPa	1075.7
29966 kPa	1075.7
29996 kPa	1075.8
30016 kPa	1075.8
30031 kPa	1075.7
30034 kPa	1075.7
30037 kPa	1075.8
30045 kPa	1075.9
30052 kPa	1075.8
30061 kPa	1075.8
30091 kPa	1075.8
30121 kPa	1075.8
30158 kPa	1075.9
30189 kPa	1075.9
30208 kPa	1075.9
30219 kPa	1075.9
30250 kPa	1075.8
30282 kPa	1076
30285 kPa	1075.9
30316 kPa	1076
30325 kPa	1076
30346 kPa	1075.9
30381 kPa	1076
30411 kPa	1075.9
